From patent publication US20250339518A1 (priority 2023, published 2025)

What was measured:
Assay type in all cases: cell-based, murine
MB49-STING KO cell line = tested on: MB49-STING KO cell line
[1] = tested on: MB49-Double KO (MB49 2KO) cell line
MB49 cells [2] = tested on: MB49 cells
MB49 cells [3] = tested on: MB49 cells; remark: listed apart in the source

SMILES: CC(C)c1ccc2oc3nc(N)c(C(=O)O)cc3c(=O)c2c1 [Amlexanox]
- VAX014-induced IFN-β production, pIRF3/IRF3 ratios and PD-L1/MHC-I surface expression after inhibitor preincubation (MB49-STING KO cell line): nearly to baseline conditions of the untreated control

SMILES: Cc1ccc2c(=O)c3cccc(CC(=O)O)c3oc2c1C [DMXAA]
- PD-L1 and MHC-I surface expression (MB49-STING KO cell line): loss of PD-L1 and MHC-I
- IFN-β production [1]: Complete loss
- Surface PD-L1 expression [1]: Complete loss
- Type I IFN (IFN-β) production in culture supernatants (MB49 cells [2]): stimulated IFN production
- PD-L1 surface expression (MB49 cells [3]): able to induce PD-L1 expression
